Earlier results as cited in publication PMC8698377, “In Vitro Hepatic Assessment of Cineole and Its Derivatives in Common Brushtail Possums (Trichosurus vulpecula) and Rodents” (Biology, 2021).
Like-named read-outs stand apart in the source and are kept apart here.

Columns and labels:
[1] = system: CYP3A; design: method as in PMID 12593759; conditions: possums, ketoconazole 5 µM, cited from earlier work
[2] = system: CYP3A; design: method as in PMID 12593759; conditions: rats, ketoconazole; cited from earlier work

Structure (SMILES): CC(=O)N1CCN(c2ccc(OCC3COC(Cn4ccnc4)(c4ccc(Cl)cc4Cl)O3)cc2)CC1 (stereo not drawn) [Ketoconazole, ketoconazole]
- reduction of the formation of 9-hydroxycineole ([1]; cineole concentration 10 µM): 15%
- reduction of the formation of 9-hydroxycineole ([1]; cineole concentration 100 µM): 30%
- reduction of the metabolite formation [2]: 85%
